Test results reported in paper PMC11993615, “Design, synthesis and optimization of TarO inhibitors as multifunctional antibiotics against Methicillin-resistant Staphylococcus aureus” (npj Antimicrobials and Resistance, 2025).
Converted amounts (≈) assume the structure as drawn.

Assays:
USA300 LAC [1] = assay: Checkerboard MIC assay with oxacillin; assay type: cell-based, Staphylococcus aureus; conditions: USA300 LAC/oxacillin
Description: (§1) In the checkerboard assay, concentrations of antibiotics, oxacillin and imipenem, and TarO inhibitors were simultaneously varied across columns and the rows, respectively. […] The range of each compound chosen for the checkerboard assay was according to their MIC value. […] For each clear well observed on the checkerboard MIC plate, the fractional inhibitory concentration index (FICI) was calculated as follows: FICI = FIC (inhibitor) + FIC (antibiotic) = MIC inhibitor in combination/ MIC inhibitor alone + MIC antibiotic in combination/MIC antibiotic alone. FIC = Fractional Inhibitory Concentration. A FICI value of < 0.5 indicates synergy, a value between 0.5 and 2 indicates additivity or indifference, and a value > 2 indicates antagonism.

USA400 MW2 [2] = assay: Checkerboard MIC assay with oxacillin; assay type: cell-based, Staphylococcus aureus; conditions: for MIC of β-lactam, combined: USA400 MW2
Description: as §1

USA400 MW2 [3] = assay: MIC determination, broth microdilution; conditions: Staphylococcus aureus
[4] = Cytotoxicity assay (Sulforhodamine B); assay type: cell-based; conditions: human
Description: The cytotoxicity was detected by Sulforhodamine B method. The human pancreatic cancer cell line Capan-1, human colon cancer cell line HCT-116 and human lung adenocarcinoma cell line NCI-H1373 were purchased from American Type Culture Collection (ATCC; Manassas, VA) and inoculated into 96-well plates in triplicate. The cells were treated with different concentrations of compounds in humidified incubator containing 5% CO2 for 72 h when they reached 70%-80% confluence. Vincristine was added as a positive control. Then, SRB staining agent was added and microplate analyzer was used to read the absorbance at 450 nm wavelength. The cytotoxicity of each compound is expressed as the concentration of the compound that reduces cell viability to 50% (IC50). The optical density (OD) at a wavelength of 450 nm was measured using an SpectraMax 190 Microplate Reader (Molecular Devices; USA). The IC50 value was calculated by the Logit method using Graphpad Prism 9.1.

[5] = Solubility of compounds in water (HPLC); assay type: physicochemical; conditions: pure water
Description: Weigh the sample in a 10 mL volumetric flask, dissolve in methanol up to the mark to obtain a reference solution of known concentration. Inject 5 μL into the HPLC, detect peak area at 254 nm wavelength. Prepare supersaturated aqueous solution of the sample, filter and inject 5 μL into the HPLC, detect peak area at 254 nm wavelength. The solubility of the compound in water […] is calculated according to the following formula: CS = CA × AB/AA (CA represents the concentration of the reference solution, AA represents the peak area of the reference solution, and AB represents the saturated peak area of the sample).

HS663 [6] = assay: Checkerboard MIC assay with imipenem; assay type: cell-based, Staphylococcus aureus; conditions: for MIC of β-lactam, combined: HS663
Description: as §1

[7] = system: TntarO::vraXpro-lux (S.aureus JE2 tarO mutant); assay: vraXpro-lux induction and growth of tarO mutant (target verification); assay type: cell-based, Staphylococcus aureus; conditions: different concentrations
Description: Second, the vraXpro-lux induction and growth inhibition experiment were conducted using a tarO mutant, as we assumed that a compound with other targets may still change the growth characteristic and the vraXpro-lux expression pattern of the mutant, whereas a TarO inhibitor would not, as its target is absent in the mutant.
Generally, JE2::vraXpro-lux and its isogenic ^TntarO::vraXpro-lux reporter strains were used for preliminary screening and cellular-based target verification. JE2::vraXpro-lux was obtained by transduction of the vraXpro-lux fusions from RN4220 strain to JE2, a plasmid-cured derivative of the community-associated MRSA strain USA300 LAC. ^TntarO::vraXpro-lux was further obtained by transposon insertion mutation of the tarO gene using a mariner-based transposon in JE2 reporter strain[41]. […] Then, 200 μL aliquot of the samples were distributed to a 96-well black-wall clear-bottom plate (Costar, Corning Incorporated), and 45 μL saxoline was added to each well to prevent the evaporation of the medium. vraXpro-lux expression level and the growth curve were measured using a Cytation 1 Multi-Mode Microplate Reader (Biotek) at different time points as indicated.

USA300 LAC [8] = assay: MIC determination, broth microdilution; conditions: Staphylococcus aureus
MRSA HS663 strain = assay: Galleria mellonella larva infection assay; conditions: for survival time of infected larvae: HS663 1.5 × 10^6 CFU
Description: Galleria mellonella infection experiment was performed according to previous methods[24]. Generally, HS663 was grown overnight in TSB (Tryptone Soya Broth) at 37 °C with shaking at 250 rpm. Then cultures were diluted 1:100 into 10 ml fresh TSB, and were further grown for 3 h. The bacterial cells were harvested by centrifugation at 5700 g for 5 min, washed twice with sterilized PBS, and suspended with PBS. Galleria mellonella larvae (Tianjin HuiYuDe Biotechnological Co., Ltd.) about 300 mg was selected to infect. […] After infection for 1 h, the larvae were administrated with compounds or solvent only. Then the Galleria mellonella larvae was cultivated at 37 °C and survival rates were recorded every 12 h for 5 days to analyze the mortality data.

[9] = system: S.aureus USA300 LAC biofilm; assay: Static biofilm inhibition assay (crystal violet); assay type: cell-based, Staphylococcus aureus; conditions: USA300 LAC, 24 h static culture
[10] = Preliminary liver microsomal stability testing; assay type: in vitro ADME, Mouse
Description: 6. Supplementary Ta b l e 3: Preliminary liver microsomal stability testing of Ta r O
Compounds Species T1/2 Clint In Vitro MF […]
a MF: metabolic bioavailability.
Microsomes in 0.1 M TRIS buffer pH 7.4 (final concentration 0.33 mg/mL), co- factor MgCl2 (final concentration 5 mM) and tested compound (final concentration 0.1 μM, co-solvent 0.01% DMSO and 0.005% Bovin serum albumin BSA) were incubated at 37°C for 10 min. The reaction was started by the addition of NADPH (final concentration 1 mM). Aliquots were sampled at 0, 5, 15, 30 and 60 min respectively and methanol (cold in wet ice) was added to terminate the reaction.
After centrifugation (4000rpm,5 min), samples were then analyzed by LC- MS/MS.

TarO = TarO (Staphylococcus aureus, UniProt Q2G060); assay type: cell-based; conditions: relative inhibition rate against the wild-type strain, OD600 at 20 h; n.a. = IC50 cannot be calculated within the test range
[11] = system: S.aureus USA300 LAC wild-type; assay: Antagonistic (chemical suppression) test of 18a against Targocil, checkerboard
HS663 [12] = assay: MIC determination, broth microdilution
[13] = system: ΔtarO strain of USA300 LAC; assay: Chemical suppression test, Targocil on tarO null mutant control; conditions: Targocil 2–64 μg/mL
bacteria = assay: MIC determination, positive control (strain not stated); conditions: 24 h
[14] = at maximum sensitization concentration
[15] = at minimum sensitization concentration
[16] = USA400 MW2/oxacillin, at minimum sensitization concentration
[17] = USA400 MW2/oxacillin, test range 0.03–32 μg/mL
[18] = HS663/imipenem, at maximum sensitization concentration
[19] = HS663/imipenem, at minimum sensitization concentration
[20] = HS663/imipenem, test range 0.03–32 μg/mL

Structure (SMILES): C[C@H]1[C@@H](c2cc(C(F)(F)F)cc(C(F)(F)F)c2)OC(=O)N1C(=O)CCn1ccc(=O)c2cccnc21 [Compound 18a]
- FICI (USA300 LAC [1]; [14]): <0.13
- Sensitization fold (USA300 LAC [1]; [14]): 256
- FICI (USA300 LAC [1]; [15]): <0.13
- Sensitization fold (USA300 LAC [1]; [15]): 8
- Minimum sensitization concentration (USA300 LAC [1]; test range 0.03–32 μg/mL): 0.03 µg/mL
- Sensitization fold (USA400 MW2 [2]; USA400 MW2/oxacillin, at maximum sensitization concentration): 64
- FICI (USA400 MW2 [2]; [16]): <0.26
- Sensitization fold (USA400 MW2 [2]; [16]): 4
- Maximum sensitization concentration (USA400 MW2 [2]; [17]): 32 µg/mL
- Minimum sensitization concentration (USA400 MW2 [2]; [17]): 0.03 µg/mL
- MIC of β-lactam, combined (USA400 MW2 [2]; oxacillin with TarO inhibitor at maximum sensitization concentration): 0.25 µg/mL
- MIC of β-lactam, combined (USA400 MW2 [2]; oxacillin with TarO inhibitor at minimum sensitization concentration): 4 µg/mL
- MIC (USA400 MW2 [3]): > 256 µg/mL
- IC50 at 72 h ([4]; Capan-1, 72 h): > 20 µM
- IC50 at 72 h ([4]; HCT-116, 72 h): > 20 µM
- IC50 at 72 h ([4]; NCI-H1373, 72 h): > 20 µM
- solubility [5]: 20 µg/mL (≈ 39 µM)
- FICI (HS663 [6]; [18]): <0.15
- Sensitization fold (HS663 [6]; [18]): 8
- FICI (HS663 [6]; [19]): <0.51
- Sensitization fold (HS663 [6]; [19]): 2
- Maximum sensitization concentration (HS663 [6]; [20]): 4 µg/mL
- Minimum sensitization concentration (HS663 [6]; [20]): 0.03 µg/mL
- MIC of β-lactam, combined (HS663 [6]; imipenem with TarO inhibitor at maximum sensitization concentration): 8 µg/mL
- MIC of β-lactam, combined (HS663 [6]; imipenem with TarO inhibitor at minimum sensitization concentration): 32 µg/mL
- vraXpro-lux expression pattern and growth characteristics of the tarO mutant [7]: neither Tarocin A nor 18a further changed the vraXpro-lux expression pattern as well as the growth characteristics of the mutant
- MIC (USA300 LAC [8]): > 256 µg/mL
- extension of survival time (MRSA HS663 strain; 16 mg/kg, higher infection dose, HS663 2.0 × 10^6 CFU): even higher than that of 20 mg/kg of imipenem treating group
- survival rate of infected larvae, combination (MRSA HS663 strain; 18a 16 mg/kg in combination with 20 mg/kg imipenem, compared with imipenem alone, 2.0 × 10^6 CFU): a further improvement in the survival rate
- survival time of infected larvae (MRSA HS663 strain; single administration 8 mg/kg): significantly extended the survival time
- survival time of infected larvae (MRSA HS663 strain; single administration 16 mg/kg): significantly extended the survival time
- concentration (as low as) significantly reducing biofilm formation [9]: 8 µg/mL
- Clint In Vitro ([10]; Mouse liver microsomes): 3051 mL/min/gprot
- Comments (metabolic stability) ([10]; Mouse liver microsomes): poor and did not achieve the desired result
- half-life at 0.1 μM ([10]; pH 7.4, Mouse liver microsomes 0.33 mg/mL, 0.1 μM compound): 41.4 s
- IC50 (TarO): 3.66 µM
- concentration (as low as) alleviating the growth inhibition of Targocil ([11]; WT strain, 18a range 0.25–128 μg/mL): 0.25 µg/mL
- MIC (HS663 [12]; HS663, compound alone): exceeds 256 μg/mL
- MIC (HS663 [12]; Staphylococcus aureus): > 256 µg/mL

Structure (SMILES): CCN(CC)c1nc2c(S(=O)(=O)c3ccc(Cl)cc3)nnn2c2cc(OC)c(OC)cc12 [Targocil, reference compound]
- MIC ([11]; Targocil alone, WT S.aureus): about 8 μg/mL
- lethal effect on the tarO mutant [13]: did not exhibit a lethal effect

Structure (SMILES): CN[C@H](CC(C)C)C(=O)N[C@H]1C(=O)N[C@@H](CC(N)=O)C(=O)N[C@H]2C(=O)N[C@H]3C(=O)N[C@H](C(=O)N[C@H](C(=O)O)c4cc(O)cc(O)c4-c4cc3ccc4O)[C@H](O)c3ccc(c(Cl)c3)Oc3cc2cc(c3O[C@@H]2O[C@H](CO)[C@@H](O)[C@H](O)[C@H]2O[C@H]2C[C@](C)(N)[C@H](O)[C@H](C)O2)Oc2ccc(cc2Cl)[C@H]1O [vancomycin]
- MIC (bacteria): 1 µg/mL (≈ 0.69 µM)
